According to ChEMBL document CHEMBL5608179, “Triptonide induces apoptosis and inhibits the proliferation of ovarian cancer cells by activating the p38/p53 pathway and autophagy” (Bioorg Med Chem, 2024):
pIC50: −log10 of the molar value. Calls of active or inactive are those of the source. No cut-off for these calls is given here.

Assays:
A2780 [1] = assay: Induction of p38 expression in human A2780 cells in presence of SB203580 at 5 to 20 nM measured after 24 hrs by Western blot analysis; type: functional, cell-based; conditions: dose 5-20 nM
[2] = Toxicity in BALB/c-nu mouse subcutaneously inoculated with human A2780 cells assessed as change in body weight at 3 to 5 mg/kg, ip administered every day for 20 days; type: organism-based; conditions: in vivo, 480 h, dose 3-5 mg/kg, time 20 day
A2780 [3] = assay: Induction of apoptosis in human A2780 cells assessed as early apoptotic cells in presence of p53 SiRNA 1 at 4 nM measured after 24 hrs by Annexin V-FITC/PI flow cytometry (reference value: 2.82%); type: functional
A2780 [4] = assay: Induction of cell cycle arrest in human A2780 cells assessed as accumulation of cells at S phase at 4 nM measured after 24 hrs by PI staining based ell Cycle Analysis Kit (KeyGEN) (reference value: 10%); type: functional
A2780 [5] = assay: Induction of apoptosis in human A2780 cells assessed as viable cells in presence of p53 SiRNA 2 at 4 nM measured after 24 hrs by Annexin V-FITC/PI flow cytometry (reference value: 94.2%); type: functional
A2780 [6] = assay: Reduction in p62 expression in human A2780 cells in presence of autophagy inhibitor bafilomycin A1 at 5 to 20 nM measured after 24 hrs by Western blot analysis; type: functional, cell-based; conditions: dose 5-20 nM
[7] = target: MAP kinase p38 (Homo sapiens) (UniProt O15264+Q15759+Q16539+P53778); assay: Activation of p38 in human A2780 cells assessed as increase phosphorylation of p38 at 5 to 20 nM measured after 24 hrs by Western blot analysis; type: cell-based; conditions: filed as activator, dose 5-20 nM
A2780 [8] = assay: Induction of apoptosis in human A2780 cells assessed as early apoptotic cells in presence of SB203580 at 8 nM measured after 24 to 72 hrs by Annexin V-FITC/PI flow cytometry (reference value: 2.82%); type: functional; conditions: time 24-72 hrs
A2780 [9] = assay: Induction of cell cycle arrest in human A2780 cells assessed as accumulation of cells at G2 phase at 2 nM measured after 24 hrs by PI staining based ell Cycle Analysis Kit (KeyGEN) (reference value: 22.2%); type: functional
A2780 [10] = assay: Antiproliferative activity against human A2780 cells assessed as number of fluorescent dots in presence of p53 SiRNA 1 at 4 nM measured after 24 hrs by KitkFluor555 Click-iT EdU Kit staining assay; type: functional, cell-based
A2780 [11] = assay: Induction of LC3II expression in human A2780 cells at 5 to 20 nM measured after 24 hrs by Western blot analysis; type: functional, cell-based; conditions: dose 5-20 nM
A2780 [12] = assay: Induction of LC3II expression in human A2780 cells in presence of autophagy inhibitor bafilomycin A1 at 5 to 20 nM measured after 24 hrs by Western blot analysis; type: functional, cell-based; conditions: dose 5-20 nM
A2780 [13] = assay: Induction of cell cycle arrest in human A2780 cells assessed as accumulation of cells at S phase in presence of SB203580 at 4 nM measured after 24 hrs by PI staining based Cell Cycle Analysis Kit (KeyGEN) (reference value: 15%); type: functional
A2780 [14] = assay: Cytotoxicity against human A2780 cells assessed as cell viability in presence of bafilomycin A1 upto 60 nM measured after 48 hrs by MTT assay; type: functional, cell-based
A2780 [15] = assay: Reduction in p62 expression in human A2780 cells at 5 to 20 nM measured after 24 hrs by Western blot analysis; type: functional, cell-based; conditions: dose 5-20 nM
SK-OV-3 = assay: Cytotoxicity against human SK-OV-3 cells assessed as cell viability measured after 48 hrs by MTT assay; type: functional, cell-based; conditions: SK-OV-3, 48 h
A2780 [16] = assay: Cytotoxicity against human A2780 cells assessed as cell viability measured after 24 to 72 hrs by MTT assay; type: functional, cell-based; conditions: dose 4-64 nM, time 24-72 hrs
A2780 [17] = assay: Induction of apoptosis in human A2780 cells assessed as early apoptotic cells at 8 nM measured after 24 to 72 hrs by Annexin V-FITC/PI flow cytometry (reference value: 2.82%); type: functional; conditions: time 24-72 hrs
A2780 [18] = assay: Cytotoxicity against human A2780 cells assessed as cell viability in presence of p53 SiRNA 1 measured after 48 hrs by MTT assay; type: functional, cell-based
[19] = Toxicity in BALB/c-nu mouse subcutaneously inoculated with human A2780 cells assessed as morphological changes of liver at 3 to 5 mg/kg, ip administered every day for 20 days by HE staining analysis; type: organism-based; conditions: in vivo, sc, 480 h, dose 3-5 mg/kg, time 20 day
A2780 [20] = assay: Induction of apoptosis in human A2780 cells assessed as viable cells at 8 nM measured after 24 to 72 hrs by Annexin V-FITC/PI flow cytometry (reference value: 94.2%); type: functional; conditions: time 24-72 hrs, read-out: Activity
A2780 [21] = assay: Induction of cleaved PARP level in human A2780 cells at 5 to 20 nM measured after 24 hrs by Western blot analysis; type: functional, cell-based; conditions: dose 5-20 nM
A2780 [22] = assay: Induction of apoptosis in human A2780 cells assessed as increase in cleaved PARP level measured after 12 to 48 hrs by Western blot analysis; type: functional, cell-based; conditions: dose 5-20 nM, time 12-48 hrs
A2780 [23] = assay: Cytotoxicity against human A2780 cells assessed as cell viability measured after 48 hrs by MTT assay; type: functional, cell-based; conditions: A2780, 48 h
A2780 [24] = assay: Induction of apoptosis in human A2780 cells assessed as late apoptotic cells in presence of bafilomycin A1 at 800 nM measured after 24 hrs by Annexin V-FITC/PI flow cytometry (reference value: 1.58%); type: functional
A2780 [25] = assay: Inhibition of colony formation in human A2780 cells at 0.25 to 0.5 uM incubated for 24 hrs by EdU staining based assay; type: functional, cell-based; conditions: dose 0.25-0.5 µM
A2780 [26] = assay: Induction of apoptosis in human A2780 cells assessed as late apoptotic cells at 4 nM measured after 24 hrs by Annexin V-FITC/PI flow cytometry (reference value: 2.54%); type: functional
A2780 [27] = assay: Induction of apoptosis in human A2780 cells assessed as late apoptotic cells in presence of p53 SiRNA 2 at 4 nM measured after 24 hrs by Annexin V-FITC/PI flow cytometry (reference value: 2.54%); type: functional
A2780 [28] = assay: In vivo antitumor activity against human A2780 cells subcutaneously inoculated in BALB/c-nu mouse assessed as inhibition of tumor growth at 3 to 5 mg/kg, ip administered every day for 20 days; type: functional, organism-based; conditions: dose 3-5 mg/kg, time 20.0 day
Huh-7 = assay: Cytotoxicity against human Huh-7 cells assessed as cell viability measured after 48 hrs by MTT assay; type: functional, cell-based; conditions: Huh-7, 48 h
A2780 [29] = assay: Induction of cell cycle arrest in human A2780 cells assessed as accumulation of cells at G1 phase at 4 nM measured after 24 hrs by PI staining based Cell Cycle Analysis Kit (KeyGEN) (reference value: 54.2%); type: functional
A2780 [30] = assay: Induction of cell cycle arrest in human A2780 cells assessed as accumulation of cells at G2 phase at 1 nM measured after 24 hrs by PI staining based ell Cycle Analysis Kit (KeyGEN) (reference value: 22.2%); type: functional
A2780 [31] = assay: Induction of p38 expression in human A2780 cells at 5 to 20 nM measured after 24 hrs by Western blot analysis; type: functional, cell-based; conditions: dose 5-20 nM

In the case of CC(C)[C@]12O[C@H]1[C@@H]1O[C@]13[C@]1(O[C@H]1C[C@H]1C4=C(CC[C@@]13C)C(=O)OC4)[C@@H]2O [TRIPTOLIDE], the Activity (A2780 [1]) was “Active”, the Activity [2] was “Non-Toxic” and the Activity (A2780 [3]) was 11.7%. For the same compound, the Activity (A2780 [4]) was 30.5%, the Activity (A2780 [5]) was 66.5% and the Activity (A2780 [6]) was “inactive”. The Activity [7] was “Active”, the Activity (A2780 [8]) was 13.1% and the Activity (A2780 [9]) was 15.3%. The Activity (A2780 [10]) was “inactive”, the Activity (A2780 [11]) was “Active” and the Activity (A2780 [12]) was “inactive”. For the same compound, the Activity (A2780 [13]) was 19.3%, the Activity (A2780 [14]) was “inactive” and the Activity (A2780 [15]) was “Active”. For the same compound, the pIC50 (SK-OV-3) was 6.10, the Activity (A2780 [16]) was “Dose-Dependent Effect” and the Activity (A2780 [17]) was 18.6%. For the same compound, the Activity (A2780 [18]) was “inactive”, the Activity [19] was “Non-Toxic” and the viability at 0.008 µM (A2780 [20]) was 55.8%. For the same compound, the Activity (A2780 [21]) was “Active”, the Activity (A2780 [22]) was “Dose-Dependent Effect” and the pIC50 (A2780 [23]) was 5.74. The Activity (A2780 [24]) was 3.96%, the inhibition (A2780 [25]) was “Active” and the Activity (A2780 [26]) was 27.5%. For the same compound, the Activity (A2780 [27]) was 14.4%, the Activity (A2780 [28]) was “Active” and the pIC50 (Huh-7) was 7.13. The Activity (A2780 [29]) was 40%, the Activity (A2780 [30]) was 15.4% and the Activity (A2780 [31]) was “Active”.
